Reference: patent US20100285963A1, “SUBSTITUTED FLUOROALKOXYPHENYLSULFONYLUREAS” (priority 2001, published 2010)

Key:
weeds [1] = assay: Post-emergence test (greenhouse), damage to weeds; format: in vivo; settings: for activity against weeds: test plants of 5-15 cm sprayed, rated after three weeks as % damage vs untreated control
Method: (§1) Solvent: 5 parts by weight of acetone
(§2) Emulsifier: 1 part by weight of alkylaryl polyglycol ether
To product a suitable preparation of active compound, 1 part by weight of active compound is mixed with the stated amount of solvent, the stated amount of emulsifier is added and the concentrate is diluted with water to the desired concentration.
Test plants of a height of 5-15 cm are sprayed with the preparation of active compound such that the particular amounts of active compound desired are applied per unit area. The concentration of the spray liquor is chosen such that the particular amounts of active compound desired are applied in 10001 of water/ha.
After three weeks, the degree of damage to the plants is rated in % damage in comparison to the development of the untreated control.
The figures denote: • 0%=no effect (like untreated control) • 100%=total destruction

weeds [2] = assay: Pre-emergence test (greenhouse), damage to weeds; format: in vivo; settings: for activity against weeds: soil sprayed 24 hours after sowing, rated after three weeks as % damage vs untreated control
Method: as §1, §2
To produce a suitable preparation of active compound, 1 part by weight of active compound is mixed with the stated amount of solvent, the stated amount of emulsifier is added and the concentrate is diluted with water to the desired concentration.
Seeds of the test plants are sown in normal soil. After 24 hours, the soil is sprayed with the preparation of active compounds such that the particular amount of active compound desired is applied per unit area. The concentration of active compound in the spray liquor is chosen such that the particular amount of active compound desired is applied in 1000 liters of water per hectare.
After three weeks, the degree of damage to the plants is rated in % damage in comparison to the development of the untreated control. The figures denote: • 0%=no effect (like untreated control) • 100%=total destruction

[3] = 250 g of a.i./ha, after three weeks
[4] = 60 g of a.i./ha, after three weeks
[5] = 30 g of a.i./ha, after three weeks, Table B10
[6] = 30 g of a.i./ha, after three weeks, Table B13
[7] = 60 g of a.i./ha, after three weeks, Table A7
[8] = 30 g of a.i./ha, after three weeks, Table B12
[9] = 30 g of a.i./ha, after three weeks, Table B8
[10] = 8 g of a.i./ha, after three weeks
[11] = 30 g of a.i./ha, after three weeks, Table B9
[12] = 30 g of a.i./ha, after three weeks, Table B11
[13] = 15 g of a.i./ha, after three weeks, Table A3
[14] = 60 g of a.i./ha, after three weeks, Table A6

## COc1cc(OC)nc(NC(=O)NS(=O)(=O)c2c(C)cccc2OCCF)n1 [(24)]
Weeds [1]; [3]
  % damage Abutilon: 100%
  % damage Alopecurus: 100%
  % damage Amaranthus: 100%
  % damage Avena fatua: 90%
  % damage Galium: 90%
  % damage Setaria: 95%
  % damage Sinapis: 100%
Weeds [2]; [3]
  % damage Alopecurus: 100%
  % damage Amaranthus: 100%
  % damage Avena fatua: 95%
  % damage Galium: 100%
  % damage Setaria: 95%
  % damage Xanthium: 95%

## CN(C)c1nc(NC(=O)NS(=O)(=O)c2c(OCCF)cccc2C(F)(F)F)nc(OCC(F)(F)F)n1 [(22)]
Weeds [1]; [4]
  % damage Alopecurus: 90%
  % damage Amaranthus: 100%
  % damage Galium: 95%
  % damage Ipomoea: 100%
  % damage Setaria: 95%
  % damage Sinapis: 95%

## COc1cc(Cl)nc(NC(=O)NS(=O)(=O)c2c(C)cccc2OCCCF)n1 [Example 14]
Weeds [1]
  activity against weeds: very strong activity
Weeds [2]
  activity against weeds: very strong activity

## COc1nc(C)nc(NC(=O)NS(=O)(=O)c2c(C)cccc2OCCCF)n1 [(13)]
Weeds [1]; [5]
  % damage Abutilon: 100%
  % damage Alopecurus: 90%
  % damage Amaranthus: 100%
  % damage Ipomoea: 90%
  % damage Lolium: 90%
  % damage Matricaria: 100%
  % damage Stellaria: 100%

## COc1nc(NC(=O)NS(=O)(=O)c2c(OCCF)cccc2C(F)(F)F)nc(OC)n1 [(21)]
Weeds [1]; [6]
  % damage Avena fatua: 100%
  % damage Datura: 100%
  % damage Lolium: 100%
  % damage Matricaria: 100%
  % damage Solanum: 100%
Weeds [2]; [7]
  % damage Abutilon: 90%
  % damage Alopecurus: 90%
  % damage Amaranthus: 95%
  % damage Galium: 95%
  % damage Setaria: 100%
  % damage Sinapis: 100%

## COc1cc(Cl)nc(NC(=O)NS(=O)(=O)c2c(OCCF)cccc2C(F)(F)F)n1 [(20)]
Weeds [1]; [8]
  % damage Echinochloa: 90%
  % damage Ipomoea: 100%
  % damage Matricaria: 95%
  % damage Polygonum: 95%
  % damage Xanthium: 100%
Weeds [2]; [7]
  % damage Abutilon: 90%
  % damage Alopecurus: 90%
  % damage Amaranthus: 95%
  % damage Galium: 95%
  % damage Setaria: 100%
  % damage Sinapis: 95%

## COc1nc(C)nc(NC(=O)NS(=O)(=O)c2c(C)cccc2OCCF)n1 [(2)]
Weeds [1]; [3]
  % damage Abutilon: 100%
  % damage Alopecurus: 100%
  % damage Amaranthus: 100%
  % damage Avena fatua: 100%
  % damage Galium: 100%
  % damage Setaria: 100%
  % damage Sinapis: 100%
Weeds [2]; [3]
  % damage Alopecurus: 100%
  % damage Amaranthus: 100%
  % damage Avena fatua: 95%
  % damage Galium: 100%
  % damage Setaria: 100%
  % damage Xanthium: 95%

## COc1nc(C)nc(NC(=O)NS(=O)(=O)c2c(OCCF)cccc2C(F)(F)F)n1 [(3)]
Weeds [1]; [9]
  % damage Abutilon: 100%
  % damage Alopecurus: 95%
  % damage Amaranthus: 100%
  % damage Lolium: 95%
  % damage Matricaria: 100%
  % damage Viola: 100%
  % damage Xanthium: 100%
Weeds [2]; [10]
  % damage Abutilon: 100%
  % damage Cyperus: 100%
  % damage Echinochloa: 100%
  % damage Galium: 100%
  % damage Solanum: 100%
  % damage Stellaria: 100%
  % damage Veronica: 100%

## COc1nc(C)nc(NC(=O)NS(=O)(=O)c2c(OCCF)cccc2C(F)(F)F)n1 [Example 3]
Weeds [1]
  activity against weeds: very strong activity
Weeds [2]
  activity against weeds: very strong activity

## CN(C)c1nc(NC(=O)NS(=O)(=O)c2c(OCCF)cccc2C(F)(F)F)nc(OCC(F)(F)F)n1 [Example 22]
Weeds [1]
  activity against weeds: very strong activity

## CCc1cccc(OCCCF)c1S(=O)(=O)NC(=O)Nc1nc(C)nc(OC)n1 [Example 17]
Weeds [1]
  activity against weeds: very strong activity
Weeds [2]
  activity against weeds: very strong activity

## CCc1cccc(OCCCF)c1S(=O)(=O)NC(=O)Nc1nc(C)cc(C)n1 [(6)]
Weeds [1]; [11]
  % damage Abutilon: 90%
  % damage Alopecurus: 90%
  % damage Amaranthus: 90%
  % damage Ipomoea: 100%
  % damage Xanthium: 95%
Weeds [2]; [7]
  % damage Abutilon: 90%
  % damage Alopecurus: 80%
  % damage Amaranthus: 90%
  % damage Galium: 90%
  % damage Setaria: 95%
  % damage Sinapis: 90%

## COc1cc(OC)nc(NC(=O)NS(=O)(=O)c2c(C)cccc2OCCCF)n1 [(12)]
Weeds [1]; [12]
  % damage Abutilon: 95%
  % damage Amaranthus: 95%
  % damage Datura: 95%
  % damage Echinochloa: 90%

## COc1nc(NC(=O)NS(=O)(=O)c2c(OCCF)cccc2C(F)(F)F)nc(OC)n1 [Example 21]
Weeds [1]
  activity against weeds: very strong activity
Weeds [2]
  activity against weeds: very strong activity

## CCc1cccc(OCCCF)c1S(=O)(=O)NC(=O)Nc1nc(Cl)cc(OC)n1 [Example 18]
Weeds [1]
  activity against weeds: very strong activity

## COc1nc(C)nc(NC(=O)[N-]S(=O)(=O)c2c(OCCF)cccc2C(F)(F)F)n1.[Na+] [(5)]
Weeds [1]; [5]
  % damage Abutilon: 100%
  % damage Alopecurus: 95%
  % damage Amaranthus: 100%
  % damage Ipomoea: 100%
  % damage Lolium: 95%
  % damage Matricaria: 100%
  % damage Stellaria: 100%
Weeds [2]; [13]
  % damage Amaranthus: 100%
  % damage Datura: 100%
  % damage Echinochloa: 100%
  % damage Galium: 100%
  % damage Matricaria: 100%
  % damage Viola: 100%

## COc1cc(OC)nc(NC(=O)NS(=O)(=O)c2c(C)cccc2OCCCF)n1 [Example 12]
Weeds [1]
  activity against weeds: very strong activity

## CCCc1cccc(OCCCF)c1S(=O)(=O)NC(=O)Nc1nc(OC)nc(OC)n1 [Example 8]
Weeds [1]
  activity against weeds: very strong activity
Weeds [2]
  activity against weeds: very strong activity

## COc1nc(NC(=O)NS(=O)(=O)c2c(C)cccc2OCCCF)nc(OC)n1 [Example 15]
Weeds [1]
  activity against weeds: very strong activity
Weeds [2]
  activity against weeds: very strong activity

## COc1nc(C)nc(NC(=O)[N-]S(=O)(=O)c2c(OCCF)cccc2C(F)(F)F)n1.[Na+] [Example 5]
Weeds [1]
  activity against weeds: very strong activity
Weeds [2]
  activity against weeds: very strong activity

## COc1nc(NC(=O)NS(=O)(=O)c2c(C)cccc2OCCCF)nc(OC)n1 [(15)]
Weeds [1]; [5]
  % damage Abutilon: 95%
  % damage Alopecurus: 90%
  % damage Amaranthus: 100%
  % damage Ipomoea: 100%
  % damage Lolium: 90%
  % damage Matricaria: 100%
  % damage Stellaria: 100%
Weeds [2]; [14]
  % damage Abutilon: 95%
  % damage Alopecurus: 95%
  % damage Amaranthus: 100%
  % damage Echinochloa: 95%
  % damage Galium: 95%
  % damage Sinapis: 95%

## COc1nc(C)nc(NC(=O)NS(=O)(=O)c2c(C)cccc2OCCCF)n1 [Example 13]
Weeds [1]
  activity against weeds: very strong activity

## CCc1cccc(OCCCF)c1S(=O)(=O)NC(=O)Nc1nc(C)cc(C)n1 [Example 6]
Weeds [1]
  activity against weeds: very strong activity
Weeds [2]
  activity against weeds: very strong activity

## COc1nc(C)nc(NC(=O)NS(=O)(=O)c2c(C)cccc2OCCF)n1 [(1)]
Weeds [1]; [3]
  % damage Abutilon: 100%
  % damage Alopecurus: 95%
  % damage Amaranthus: 100%
  % damage Avena fatua: 95%
  % damage Galium: 100%
  % damage Setaria: 100%
  % damage Sinapis: 100%
Weeds [2]; [3]
  % damage Alopecurus: 100%
  % damage Amaranthus: 100%
  % damage Avena fatua: 100%
  % damage Galium: 100%
  % damage Setaria: 100%
  % damage Xanthium: 100%

## COc1cc(Cl)nc(NC(=O)NS(=O)(=O)c2c(OCCF)cccc2C(F)(F)F)n1 [Example 20]
Weeds [1]
  activity against weeds: very strong activity
Weeds [2]
  activity against weeds: very strong activity

## CCCc1cccc(OCCF)c1S(=O)(=O)NC(=O)Nc1nc(OC)cc(OC)n1 [(26)]
Weeds [1]; [3]
  % damage Abutilon: 100%
  % damage Alopecurus: 95%
  % damage Amaranthus: 100%
  % damage Avena fatua: 90%
  % damage Galium: 90%
  % damage Setaria: 90%
  % damage Sinapis: 95%
Weeds [2]; [3]
  % damage Alopecurus: 100%
  % damage Amaranthus: 100%
  % damage Avena fatua: 90%
  % damage Galium: 95%
  % damage Setaria: 100%
  % damage Xanthium: 95%

## COc1cc(OC)nc(NC(=O)NS(=O)(=O)c2c(OCCF)cccc2C(F)(F)F)n1 [Example 4]
Weeds [1]
  activity against weeds: very strong activity
Weeds [2]
  activity against weeds: very strong activity

## CCCc1cccc(OCCCF)c1S(=O)(=O)NC(=O)Nc1nc(C)nc(OC)n1 [Example 7]
Weeds [1]
  activity against weeds: very strong activity
Weeds [2]
  activity against weeds: very strong activity
